Assay [1] relates to HCT116 homozygous MTAP knockout cells. Briefly: Proliferation assay (CellTiter-Glo, 10 days) in HCT116 homozygous MTAP knockout cells. The format is cell-based. As to conditions: CellTiter-Glo after 10 days of treatment, read-out: Proliferation IC50 (nM) HCT116 MTAP_KO. In a few lines: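 MTAP-null HCT116 clone made by CRISPR/Cas9 knockout of both alleles, tested beside parental cells. Cells dosed the day after seeding, split 1:10 on day 6 into fresh medium with the same compound level, and read on day 11 by CellTiter-Glo. IC50 taken after 10 days of exposure.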
(ATP-based viability assays read luminescence as a measure of living cells.)

The target of another assay is T1, PRMT5/MEP50 complex (Homo sapiens, UniProt O14744).
T1 construct: purchased Reaction Biology Corporation
Briefly: PRMT5:MEP50 HotSpot Assay (full-length histone H2A substrate, plus and minus MTA). Conditions: IC50 + 2 μM MTA, in the presence of 2 μM MTA. The format is biochemical. In a few lines: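 Radiometric HotSpot format using recombinant full-length histone H2A as substrate, run with and without MTA. Reactions were stopped and spotted onto filter paper. Tritiated H2A was quantified by scintillation counting.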

Assay [2] has as its system PRMT5-dependent Symmetric Di-methyl Arginine signal in HCT116 homozygous MTAP Knockout cells. The assay can be described thus: SYM11 In-Cell Western in HCT116 homozygous MTAP knockout cells. The format is cell-based. In a few lines:
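HCT116 cells with CRISPR homozygous MTAP knockout, alongside parental cells, treated four days with PRMT5 inhibitor dose response at 37° C., 5% CO2 in McCoy's 5A with 10% FBS.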

In assay [3] the test system is PRMT5-dependent Symmetric Di-methyl Arginine signal in HCT116 parental cells. Briefly: SYM11 In-Cell Western in HCT116 parental cells. The format is cell-based. As to conditions: Homo sapiens, HCT-116, 96 h, read-out: In-cell-Western (SYM11) IC50 (nM) HCT216 parental. How it is done:
Control samples were analyzed in parallel.
Briefly, on Day 0, 2,000 HCT116 parental or HCT116 homozygous MTAP knockout cells were seeded in 96 well plates in McCoy's 5A supplemented with 10% fetal bovine serum and pen/strep and the cells were incubated overnight at 37° C. plus 5% CO2. The following day, cells were treated with DMSO vehicle control or a dose response of PRMT5 inhibitors, and incubated at 37° C. plus 5% CO^2 for four days.
After 4 days of treatment, the cells were fixed by adding 50 μl of 4% paraformaldehyde solution to each well and the cells were incubated for 20 min at room temperature. The paraformaldehyde solution was removed, 150 μl of ice-cold methanol was added and the plate was placed −20° C. for 10 minutes. The methanol was removed, 150 μl of Odyssey Blocking buffer+0.05% Tween20 was added and the plate was incubated at room temperature with shaking for one hour.
The primary SYM11 antibody solution was removed by aspiration and the wells were washed three consecutive times with phosphate buffered saline containing 0.1% Tween-20 (PBST).
The secondary antibody solution was removed by aspiration and the wells were washed three consecutive times with PBST.
The SYM11 signal and the DRAQ5 signal were quantified using a Li-Cor Odyssey machine reading at […], respectively. The SYM11/DRAQ5 ratio was used to calculate the inhibition of Symmetric Dimethyl Arginine as percent of DMSO control.

Setting [4] is: 4 days of treatment, SYM11/DRAQ5 ratio as percent of DMSO control, read-out: In-cell-Western (SYM11) IC50 (nM) HCT116 MTAP_KO.
Setting [5] is: Homo sapiens, HCT-116, 96 h, 4 days of treatment, SYM11/DRAQ5 ratio as percent of DMSO control, read-out: In-cell-Western (SYM11) IC50 (nM) HCT116 MTAP_KO.

Where two headings read alike, the source gives them in different places.

T1 sequence (O14744 2-637 limits assumed): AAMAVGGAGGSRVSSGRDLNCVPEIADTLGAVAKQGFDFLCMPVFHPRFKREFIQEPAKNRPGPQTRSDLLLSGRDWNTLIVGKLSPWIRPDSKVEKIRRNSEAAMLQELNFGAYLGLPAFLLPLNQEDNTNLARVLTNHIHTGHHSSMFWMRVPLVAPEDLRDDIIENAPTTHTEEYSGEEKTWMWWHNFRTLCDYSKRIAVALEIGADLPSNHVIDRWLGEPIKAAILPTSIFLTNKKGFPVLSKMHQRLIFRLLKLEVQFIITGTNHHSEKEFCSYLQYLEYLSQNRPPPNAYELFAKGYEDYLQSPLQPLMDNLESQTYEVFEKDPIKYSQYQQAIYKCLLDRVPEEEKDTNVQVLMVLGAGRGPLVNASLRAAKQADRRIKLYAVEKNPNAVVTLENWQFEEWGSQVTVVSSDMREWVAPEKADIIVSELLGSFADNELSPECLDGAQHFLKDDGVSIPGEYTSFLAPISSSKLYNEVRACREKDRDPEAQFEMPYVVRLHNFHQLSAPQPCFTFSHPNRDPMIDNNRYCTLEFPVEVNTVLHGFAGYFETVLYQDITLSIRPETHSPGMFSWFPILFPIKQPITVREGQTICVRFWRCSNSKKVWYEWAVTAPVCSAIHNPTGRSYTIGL
T1 sequence (Q9BQA1 2-342 partner limits assumed): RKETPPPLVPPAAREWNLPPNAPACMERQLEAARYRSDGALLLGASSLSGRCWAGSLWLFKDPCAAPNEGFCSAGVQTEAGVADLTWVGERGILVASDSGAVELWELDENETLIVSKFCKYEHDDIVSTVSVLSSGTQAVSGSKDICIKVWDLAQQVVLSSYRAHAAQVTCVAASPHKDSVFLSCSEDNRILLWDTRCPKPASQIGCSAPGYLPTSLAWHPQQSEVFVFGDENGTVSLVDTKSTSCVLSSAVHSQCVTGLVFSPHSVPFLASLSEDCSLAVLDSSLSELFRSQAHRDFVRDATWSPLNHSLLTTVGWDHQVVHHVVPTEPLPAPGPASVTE

As for `Cc1c(F)c(-c2c(-c3cc(C)c4c(=O)[nH]nc(CN)c4c3)cnn2C)c(C#N)c2ccccc12` (single isomer, unassigned) [Example 16-42, (M)-2-[4-[4-(aminomethyl)-8-methyl-1-oxo-2H-phthalazin-6-yl]-2-methyl-pyrazol-3-yl]-3-fluoro-4-methyl-naphthalene-1-carbonitrile], the IC50 in assay [1] was 7 nM; on PRMT5/MEP50 complex, 4.55 nM; in assay [2] (setting [4]), 6 nM.
On the same counts, the results for `Cn1ncc(-c2cc(Cl)c3c(=O)[nH]nc(CN)c3c2)c1-c1c(F)ccc(OC2CC2)c1C#N` (atropisomer, axis not shown; (M)) [Example 16-56, (M)-2-[4-[4-(aminomethyl)-8-chloro-1-oxo-2H-phthalazin-6-yl]-2-methyl-pyrazol-3-yl]-6-(cyclopropoxy)-3-fluoro-benzonitrile] are 22 nM, 113 nM and 9 nM.
Take `Cc1cc(-c2cnn(C)c2-c2c(F)cc3ccccc3c2C#N)cc2c(CN)n[nH]c(=O)c12` (single isomer, unassigned) [Example 16-15, (P)-2-[4-[4-(aminomethyl)-8-methyl-1-oxo-2H-phthalazin-6-yl]-2-methyl-pyrazol-3-yl]-3-fluoro-naphthalene-1-carbonitrile]: the values for the IC50 (in assay [1]; at PRMT5/MEP50 complex; in assay [2] (setting [4])) were 33 nM, 95 nM and 17 nM, respectively.
As to `Cn1ncc(-c2cc(Cl)c3c(=O)[nH]nc(CN)c3c2)c1-c1c(C#N)cc2ccccc2c1Cl` (single isomer, unassigned) [Example 16-64, (M)-3-[4-[4-(aminomethyl)-8-chloro-1-oxo-2H-phthalazin-6-yl]-2-methyl-pyrazol-3-yl]-4-chloro-naphthalene-2-carbonitrile], the IC50 in assay [1] amounted to 17 nM; on PRMT5/MEP50 complex it was 23.3 nM; in assay [2] (setting [4]), 13 nM.
Take `Cc1cc(-c2cnn(C)c2-c2c(F)c(Cl)cc(OC3CC3)c2C#N)cc2c(CN)n[nH]c(=O)c12` (single isomer, unassigned) [Example 16-46, (M)-2-[4-[4-(aminomethyl)-8-methyl-1-oxo-2H-phthalazin-6-yl]-2-methyl-pyrazol-3-yl]-4-chloro-6-(cyclopropoxy)-3-fluoro-benzonitrile]: the figures for the IC50 (in assay [1]; on PRMT5/MEP50 complex; in assay [2] (setting [4])) were 7 nM, 41.9 nM and 6 nM, respectively.
With `Cn1ncc(-c2cc(Cl)c3c(=O)[nH]nc(CN)c3c2)c1-c1sc2ccccc2c1C#N` [Example 10-22, 2-(4-(4-(aminomethyl)-8-chloro-1-oxo-1,2-dihydrophthalazin-6-yl)-1-methyl-1H-pyrazol-5-yl)benzo[b]thiophene-3-carbonitrile], the IC50 in assay [1] (Homo sapiens, HCT-116, 240 h) came to 52 nM; at PRMT5/MEP50 complex, 86.8 nM; in assay [2] (setting [5]), 17 nM.
Turning to `Cn1ncc(-c2ccc3c(=O)[nH]nc(CN)c3c2)c1-c1c(C#N)cc2ccccc2c1Cl` (single isomer, unassigned) [Example 16-5], the IC50 in assay [1] was found to be 2850 nM; on PRMT5/MEP50 complex, 994 nM; in assay [2] (setting [4]), 272 nM.
On to `Cn1ncc(-c2ccc3c(=O)[nH]nc(CN)c3c2)c1-c1c(F)c(Cl)cc(OC2CC2)c1C#N` [Example 4-230, 2-(4-(4-(aminomethyl)-1-oxo-1,2-dihydrophthalazin-6-yl)-1-methyl-1H-pyrazol-5-yl)-4-chloro-6-cyclopropoxy-3-fluorobenzonitrile], for which the IC50 was over 1000 nM in assay [3] and 6 nM in assay [2] (read-out: In-cell-Western (SYM11) IC50 (nM) HCT116 MTAP_KO, 4 days of treatment, SYM11/DRAQ5 ratio as percent of DMSO control).
For `Cc1cc(OC2CC2)c(C#N)c(-c2c(-c3cc(C)c4c(=O)[nH]nc(CN)c4c3)cnn2C)c1F` (single isomer, unassigned) [Example 16-44, (M)-2-(4-(4-(aminomethyl)-8-methyl-1-oxo-1,2-dihydrophthalazin-6-yl)-1-methyl-1H-pyrazol-5-yl)-6-cyclopropoxy-3-fluoro-4-methylbenzonitrile], the IC50 came to 20 nM in assay [1], 69.5 nM at PRMT5/MEP50 complex and 13 nM in assay [2] (setting [4]).
In the case of `CCn1cccc(-c2c(-c3ccc4c(=O)[nH]nc(CN)c4c3)cnn2C)c1=O` [Example 4-255, 4-(aminomethyl)-6-(5-(1-ethy1-2-oxo-1,2-dihydropyridin-3-yl)-1-methyl-1H-pyrazol-4-yl)phthalazin-1(2H)-one], the IC50 came out at 1630 nM in assay [1] (Homo sapiens, HCT-116, 240 h); 9620 nM at PRMT5/MEP50 complex; 955 nM in assay [2] (setting [5]).
For `Cn1ncc(-c2cc(Cl)c3c(=O)[nH]nc(CN)c3c2)c1-c1c(F)ccc(OC2CC2)c1C#N` (atropisomer, axis not shown; (P)) [Example 16-55, (P)-2-[4-[4-(aminomethyl)-8-chloro-1-oxo-2H-phthalazin-6-yl]-2-methyl-pyrazol-3-yl]-6-(cyclopropoxy)-3-fluoro-benzonitrile], the IC50 came out at 77 nM in assay [1], 260 nM on PRMT5/MEP50 complex and 57 nM in assay [2] (setting [4]).
On the same counts, the results for `Cc1cc(-c2cnn(C)c2-c2c(F)c(Cl)cc(OC3CC3)c2C#N)cc2c(CN)n[nH]c(=O)c12` (single isomer, unassigned) [Example 16-45, (P)-2-[4-[4-(aminomethyl)-8-methyl-1-oxo-2H-phthalazin-6-yl]-2-methyl-pyrazol-3-yl]-4-chloro-6-(cyclopropoxy)-3-fluoro-benzonitrile] are 798 nM, 1970 nM and 282 nM.
On the same counts, the results for `Cc1cc(OC2CC2)c(C#N)c(-c2c(-c3cc(C)c4c(=O)[nH]nc(CN)c4c3)cnn2C)c1F` (single isomer, unassigned) [Example 16-43, (P)-2-(4-(4-(aminomethyl)-8-methyl-1-oxo-1,2-dihydrophthalazin-6-yl)-1-methyl-1H-pyrazol-5-yl)-6-cyclopropoxy-3-fluoro-4-methylbenzonitrile] are 1300 nM, 2000 nM and 656 nM.
Turning to `Cc1cc(-c2cnn(C)c2-c2c(F)ccc(OC3CC3)c2C#N)cc2c(CN)n[nH]c(=O)c12` (atropisomer, axis not shown; (M)) [Example 16-48, (M)-2-[4-[4-(aminomethyl)-8-methyl-1-oxo-2H-phthalazin-6-yl]-2-methyl-pyrazol-3-yl]-6-(cyclopropoxy)-3-fluoro-benzonitrile], the IC50 worked out at 19 nM in assay [1], 128 nM on PRMT5/MEP50 complex and 10 nM in assay [2] (setting [4]).
As to `Cn1ncc(-c2ccc3c(=O)[nH]nc(CN)c3c2)c1-c1csc2cccc(=O)n12` [Example 4-267, 3-[4-[4-(aminomethyl)-1-oxo-2H-phthalazin-6-yl]-2-methyl-pyrazol-3-yl] thiazolo[3,2-a]pyridin-5-one], the IC50 was determined as 10000 nM in assay [1] (Homo sapiens, HCT-116, 240 h); 6140 nM on PRMT5/MEP50 complex; 1000 nM in assay [2] (setting [5]).
As to `Cn1ncc(-c2cc(Cl)c3c(=O)[nH]nc(CN)c3c2)c1-c1c(C#N)cc2ccccc2c1Cl` (single isomer, unassigned) [Example 16-63, (P)-3-[4-[4-(aminomethyl)-8-chloro-1-oxo-2H-phthalazin-6-yl]-2-methyl-pyrazol-3-yl]-4-chloro-naphthalene-2-carbonitrile], the IC50 in assay [1] is 859 nM; on PRMT5/MEP50 complex it was 341 nM; in assay [2] (setting [4]) it was 437 nM.
Turning to `Cn1ncc(-c2ccc3c(=O)[nH]cc(CN)c3c2)c1-c1ccc2ccccc2c1C#N` [Example 18-2, 2-[4-[4-(aminomethyl)-1-oxo-2H-isoquinolin-6-yl]-2-methyl-pyrazol-3-yl]naphthalene-1-carbonitrile], the IC50 in assay [1] (Homo sapiens, HCT-116, 240 h) was 2870 nM; on PRMT5/MEP50 complex, 2930 nM; in assay [2] (setting [5]) it was over 1000 nM.

The values are drawn from patent publication US20240208912A1 (Mirati Therapeutics, Inc., priority 2021, published 2024).
